How the values were obtained:
[1] = maximum tolerated dose of clofarabine; assay type: in vivo; conditions: species and study not stated
Description: It may be necessary to use dosages of the active ingredient outside the ranges disclosed herein in some cases, as will be apparent to those of ordinary skill in the art, but the dosage should not fall below 1.0 mg/kg/day. The maximum tolerated doses of clofarabine is approximately 80 mg/kg per day. Furthermore, it is noted that the clinician or treating physician will know how and when to interrupt, adjust, or terminate therapy in conjunction with individual patient response.

[2] = degradation of the drug during dissolution, lyophilization and drying of the parenteral formulation; assay type: physicochemical; conditions: dissolution in tertiary butanol/Water for Injection at 5° C., lyophilization at −16° C. for 48 hours, drying at 15° C. under high vacuum for 48 hours, protected from light
Description: Clofarabine, 9.86 g, is wetted/partially dissolved with 600 mL of a 9:1 mixture of tertiary butanol and Water for Injection USP which is pre-cooled to 5° C. Once the drug powder is completely wetted, dissolution is completed by the addition of 600 mL of a 1:9 mixture of tertiary butanol and Water for Injection and 766 mL of a 1:1 mixture of tertiary butanol and Water for Injection which likewise is pre-cooled to 5° C. thereby making the final solution a 1:1 mixture. The dissolution is carried out under protection from light.
The solution formed above is promptly lyophilized in a Virtis INOTOP lyophilizer at −16° C. under light protectant conditions over a period of 48 hours. The resultant lyophilized product (lyophile) is then further dried at 15° C. under high vacuum for 48 hours. […] The lyophile is packaged under sterile conditions into 30 mL vials, each containing 50 mg of drug, 50 mg of mannitol and sodium hydroxide to adjust the pH to 7.7 and standard excess to allow for vial/needle/syringe loss.

Nc1nc(Cl)nc2c1ncn2[C@@H]1O[C@H](CO)[C@@H](O)[C@@H]1F [Clofarabine, 2 Chloro 9 (2 deoxy 2 fluoro β D arabinofuranosyl)adenine]
maximum tolerated dose [1]: approximately 80 mg/kg per day | degradation of the drug [2]: No detectable degradation

Reference: patent US7772206B2, “Methods and compositions for the treatment of autoimmune disorders using clofarabine” (Genzyme Corporation, priority 2002, dated 2010)
